According to publication PMC10786692 (The Journal of Clinical Investigation, 2024):
Several values for one entry are separate records, joined by “and”; a condition that tells them apart may be missing. Equal values may be shown once. Read-outs that look alike come from different tables or passages of the source.

Tests used:
[1] = Plasma pharmacokinetics of ceralasertib (HPLC-MS/MS, NCA); type: in vivo, human; settings: for half-life: read-out: Mean terminal elimination half-life
Protocol: Intensive PK sampling in part A occurred after a single dose from predose up to 24 to 72 hours and again at day 15 and day 29 of continuous dosing. Participants fasted for 1 hour before and 2 hours after dosing for PK assessment. In part B, sampling coincided with day 15 PD assessments. Full details are given in Supplemental Methods. […]
Evaluated PK […]
maximum observed plasma concentration (Cmax), time to Cmax (tmax), and apparent terminal half-life (t1/2) calculated as ln/lambda-z where lambda-z (lz) is the apparent terminal phase rate- […]
constant estimated by linear regression of logarithmically-transformed concentration-versus-time data. A minimum of three data points were used in calculating lz as per AstraZeneca standard operating procedures. Data from multiple dosing were used to derive accumulation ratios based on Cmax (Race Cmax) and AUC(0-8) (Rac AUC0-8) defined as the ratio between Cmax or AUC(0-8) after multiple dose and Cmax and AUC(0-8) at day 1. All PK parameters for […]
WinNonLin v8.3 software or higher where the ‘linear up/log down trapezoidal rule’ for AUC was […]
applied. […]

γH2AX = test: Paired tumor biopsy γH2AX IHC; type: in vivo, human; settings: four paired biopsies, after 2-week dosing
Protocol: PD sampling took place at baseline (within 7 days prior to dosing) and between days 15 and 22 of dosing (day 14 for intermittent dosing cohorts). PD samples included PBMCs and tumor biopsies. PBMCs were analyzed by immunofluorescence for γ^(S139)H2AX, p-^(S345)Chk1, and total Chk1, as described in Supplemental Methods. Paired tumor biopsies were formalin fixed and analyzed for nuclear p-^(S635)Rad50 and γH2AX by IHC. […]
signatures for heatmap construction were used from MSigDB (49) and cell-type-related transcripts from NanoString annotations and Bindea et al (50). Cell-type deconvolution was performed using CIBERSORTx (51).
Supplementary Pharmacodynamic methods
Formalin fixed paraffin-embedded tumor samples were used. […] H-score was calculated using HALO image analysis (Indica Labs). […] Nuclear ATM (Abcam 32420) IHC staining was carried out on the Ventana autostainer, using DAB detection and assessed by H-score, but samples were only deemed acceptable if lymphocyte staining (internal control) was at least 2+ (moderate) intensity. Cyclin E1 (Invitrogen HE12) staining was carried out on the Ventana autostainer, using DAB detection and the H-score was quantified using HALO image analysis (Indica Labs). Ki67 (Mib-1, Dako M7240) was scored by percent nuclear positivity using a global unweighted method, scoring 4 areas of 100 cells. […]

ATR = settings: preclinical; cited from earlier work

## C[C@@H]1COCCN1c1cc(C2([S@](C)(=N)=O)CC2)nc(-c2cc[nH]c3nccc2-3)n1 [ceralasertib]
[1]; 20 mg day 0, 24 h
  Plasma concentration, individual patients: […]
[1]; 20 mg day 1, 24 h
  Plasma concentration, individual patients: […]
[1]; 40 mg day 0, 0 h, in ng/mL
  Plasma concentration, individual patients: 0
[1]; 40 mg day 0, 0.5 h
  Plasma concentration, individual patients: […]
[1]; 40 mg day 0, 1 h
  Plasma concentration, individual patients: […]
[1]; 40 mg day 0, 2 h
  Plasma concentration, individual patients: […]
[1]; 40 mg day 0, 4 h
  Plasma concentration, individual patients: […]
[1]; 40 mg day 0, 8 h
  Plasma concentration, individual patients: […]
[1]; 40 mg day 0, 24 h
  Plasma concentration, individual patients: 226 ng/mL and 224 ng/mL
[1]; 40 mg day 1, 0.5 h
  Plasma concentration, individual patients: […]
[1]; 40 mg day 1, 1 h
  Plasma concentration, individual patients: […]
[1]; 40 mg day 1, 2 h
  Plasma concentration, individual patients: […]
[1]; 40 mg day 1, 4 h
  Plasma concentration, individual patients: […]
[1]; 40 mg day 1, 8 h
  Plasma concentration, individual patients: […]
[1]; 40 mg day 1, 24 h
  Plasma concentration, individual patients: 1220 ng/mL and 677 ng/mL
[1]; 80 mg day 0, 0 h, in ng/mL
  Plasma concentration, individual patients: 0
[1]; 80 mg day 0, 0.5 h
  Plasma concentration, individual patients: 0 ng/mL
[1]; 80 mg day 0, 2 h
  Plasma concentration, individual patients: […]
[1]; 80 mg day 0, 4 h
  Plasma concentration, individual patients: […]
[1]; 80 mg day 0, […], in ng/mL
  Plasma concentration, individual patients: 0
[1]; 80 mg day 1, 0.5 h
  Plasma concentration, individual patients: […]
[1]; 80 mg day 1, 1 h
  Plasma concentration, individual patients: […]
[1]; 80 mg day 1, 2 h
  Plasma concentration, individual patients: […]
[1]; 80 mg day 1, 4 h
  Plasma concentration, individual patients: […]
[1]; all doses, single and multiple dose
  Oral absorption: rapidly orally absorbed
[1]; human, plasma, oral, 20 mg, 20 mg day 0, 0 h, read-out: Plasma concentration, individual patients
  concentration at 0 h: 0 ng/mL
[1]; human, plasma, oral, 20 mg, 20 mg day 0, 4 h, read-out: Plasma concentration, individual patients
  concentration at 4 h: […]
[1]; human, plasma, oral, 20 mg, 20 mg day 0, 8 h, read-out: Plasma concentration, individual patients
  concentration at 8 h: 562 ng/mL
[1]; human, plasma, oral, 20 mg, 20 mg day 1, 2 h, read-out: Plasma concentration, individual patients
  concentration at 2 h: […]
[1]; human, plasma, oral, 20 mg, 20 mg day 1, 4 h, read-out: Plasma concentration, individual patients
  concentration at 4 h: […]
[1]; human, plasma, oral, 20 mg, 20 mg day 1, 8 h, read-out: Plasma concentration, individual patients
  concentration at 8 h: 618 ng/mL
[1]; human, plasma, oral, 40 mg, 40 mg day 0, 2 h, read-out: Plasma concentration, individual patients
  concentration at 2 h: […]
[1]; human, plasma, oral, 40 mg, 40 mg day 0, 4 h, read-out: Plasma concentration, individual patients
  concentration at 4 h: […]
[1]; human, plasma, oral, 40 mg, 40 mg day 0, 8 h, read-out: Plasma concentration, individual patients
  concentration at 8 h: 1010 ng/mL
[1]; human, plasma, oral, 40 mg, 40 mg day 0, 24 h, read-out: Plasma concentration, individual patients
  concentration at 24 h: 203 ng/mL
[1]; human, plasma, oral, 40 mg, 40 mg day 1, 1 h, read-out: Plasma concentration, individual patients
  concentration at 1 h: 2490 ng/mL
[1]; human, plasma, oral, 40 mg, 40 mg day 1, 2 h, read-out: Plasma concentration, individual patients
  concentration at 2 h: 2290 ng/mL
[1]; human, plasma, oral, 40 mg, 40 mg day 1, 4 h, read-out: Plasma concentration, individual patients
  concentration at 4 h: 1640 ng/mL
[1]; human, plasma, oral, 40 mg, 40 mg day 1, 8 h, read-out: Plasma concentration, individual patients
  concentration at 8 h: 996 ng/mL
[1]; human, plasma, oral, 40 mg, 40 mg day 1, 24 h, read-out: Plasma concentration, individual patients
  concentration at 24 h: […]
[1]; human, plasma, oral, 80 mg, 80 mg day 0, 0 h, read-out: Plasma concentration, individual patients
  concentration at 0 h: 0 ng/mL
[1]; human, plasma, oral, 80 mg, 80 mg day 0, […], read-out: Plasma concentration, individual patients
  concentration at […]: 0 ng/mL
[1]; human, plasma, oral, 160 mg, 160 mg day 0, 0 h, read-out: Plasma concentration, individual patients
  concentration at 0 h: 0 ng/mL
[1]; human, plasma, oral, 240 mg, 240 mg day 0, 0 h, read-out: Plasma concentration, individual patients
  concentration at 0 h: 0 ng/mL
[1]; human, plasma, oral, 240 mg, 240 mg day 0, 8 h, read-out: Plasma concentration, individual patients
  concentration at 8 h: […]
[1]; human, plasma, oral, 240 mg, 240 mg day 0, read-out: Plasma concentration, individual patients
  concentration at 12 h: 4200 ng/mL
[1]; human, plasma, oral, 240 mg, 240 mg day 15, 0 h, read-out: Plasma concentration, individual patients
  concentration at 0 h: 8530 ng/mL
[1]; human, plasma, oral, 240 mg, 240 mg day 15, 0.5 h, read-out: Plasma concentration, individual patients
  concentration at 0.5 h: 13500 ng/mL
[1]; human, plasma, oral, 240 mg, 240 mg day 15, 1 h, read-out: Plasma concentration, individual patients
  concentration at 1 h: […]
[1]; human, plasma, oral, 240 mg, 240 mg day 15, 4 h, read-out: Plasma concentration, individual patients
  concentration at 4 h: 13500 ng/mL
[1]; human, plasma, oral, 240 mg, 240 mg day 15, 8 h, read-out: Plasma concentration, individual patients
  concentration at 8 h: 10200 ng/mL
[1]; human, plasma, oral, 240 mg, 240 mg day 15, read-out: Plasma concentration, individual patients
  concentration at 12 h: 9080 ng/mL
[1]; human, plasma, oral, 240 mg, 240 mg day 15, […], read-out: Plasma concentration, individual patients
  concentration at […]: […]
[1]; human, plasma, oral, 40 and 80 mg dose levels
  half-life: […]
[1]; human, plasma, oral, 160 and 240 mg dose levels
  half-life: […]
[1]; human, plasma, oral, all doses, single and multiple dose, read-out: Median time to peak drug concentration (tmax)
  Tmax: […]
[1]; single dosing, 80 to 240 mg
  Exposure versus dose: increased approximately proportionally
γH2AX
  Number of γH2AX-positive cells in paired tumor biopsies: increase
ATR
  IC90: […]
